Reference: patent US9867790B2, “Compositions and methods using cuminaldehyde” (NESTEC S.A., priority 2013, dated 2018)
Read-outs that look alike come from different tables or passages of the source.

Columns and labels:
[1] = test system: mice; assay: body weight gain in mice with chronic ingestion (FIG. 3); assay type: in vivo; conditions: mice chronically fed high fat diet containing 0.2 wt %, vs same diet without
[2] = test system: mice; assay: insulin sensitivity in mice with chronic ingestion (FIG. 4); assay type: in vivo; conditions: mice chronically fed high fat diet containing 0.2 wt %, vs same diet without
[3] = test system: mice; assay: short term food intake after a single ingestion in mice (FIG. 5); assay type: in vivo; conditions: vs sham gavage
[4] = test system: mice; assay: gastric emptying after a single ingestion in mice (FIG. 6); assay type: in vivo; conditions: vs sham gavage
[5] = test system: TRPA1; conditions: read-out: EC50 of TRPA1 activation; cited from earlier work
[6] = biological target: T1, TRPV1 (Homo sapiens, UniProt Q8NER1); conditions: cited from earlier work
T1 construct: expressed in transfected cells

[7] = biological target: T2, TRPA1 (Homo sapiens, UniProt O75762); assay: in vitro activation of TRPA1 in cells (FIG. 7); assay type: cell-based
T2 construct: expressed in transfected cells

[8] = biological target: T1, TRPV1; assay: in vitro activation of TRPV1 in cells (FIG. 7); assay type: cell-based; conditions: FIG. 7, triangles
[9] = test system: "empty" cells; assay: in vitro activation of "empty" cells (FIG. 7); assay type: cell-based
[10] = biological target: T2, TRPA1; assay: desensitization of TRPA1 by pretreatment before cinnamaldehyde (FIGS. 8A, 8B); assay type: cell-based; conditions: applied to cells fifteen minutes before cinnamaldehyde
Description: (§1) Specifically, cuminaldehyde was applied to cells fifteen minutes before cinnamaldehyde, icilin and capsaicin, which are specific agonists for TRPA1, TRPM8 and TRPV1 cation channels, respectively. After specific agonist application, the cation channel expression was measured. […] The left bars in each graph represent the controls lacking cuminaldehyde pretreatment, the right bars in each graph represent the samples including cuminaldehyde pretreatment.

[11] = biological target: T1, TRPV1; assay: desensitization of TRPV1 by pretreatment before capsaicin (FIGS. 8A, 8B); assay type: cell-based; conditions: applied to cells fifteen minutes before capsaicin
Description: as §1

[12] = biological target: T3, TRPM8 (Homo sapiens, UniProt Q7Z2W7); assay: in vitro activation of hTRPM8 in cells (FIG. 7); assay type: cell-based; design: expressed in transfected cells; conditions: FIG. 7, squares
[13] = biological target: T3, TRPM8; assay: desensitization of TRPM8 by pretreatment before icilin (FIGS. 8A, 8B); assay type: cell-based; design: host or cells: cells, not specified; conditions: applied to cells fifteen minutes before icilin
Description: as §1

T2 sequence (O75762 whole entry, species assumed): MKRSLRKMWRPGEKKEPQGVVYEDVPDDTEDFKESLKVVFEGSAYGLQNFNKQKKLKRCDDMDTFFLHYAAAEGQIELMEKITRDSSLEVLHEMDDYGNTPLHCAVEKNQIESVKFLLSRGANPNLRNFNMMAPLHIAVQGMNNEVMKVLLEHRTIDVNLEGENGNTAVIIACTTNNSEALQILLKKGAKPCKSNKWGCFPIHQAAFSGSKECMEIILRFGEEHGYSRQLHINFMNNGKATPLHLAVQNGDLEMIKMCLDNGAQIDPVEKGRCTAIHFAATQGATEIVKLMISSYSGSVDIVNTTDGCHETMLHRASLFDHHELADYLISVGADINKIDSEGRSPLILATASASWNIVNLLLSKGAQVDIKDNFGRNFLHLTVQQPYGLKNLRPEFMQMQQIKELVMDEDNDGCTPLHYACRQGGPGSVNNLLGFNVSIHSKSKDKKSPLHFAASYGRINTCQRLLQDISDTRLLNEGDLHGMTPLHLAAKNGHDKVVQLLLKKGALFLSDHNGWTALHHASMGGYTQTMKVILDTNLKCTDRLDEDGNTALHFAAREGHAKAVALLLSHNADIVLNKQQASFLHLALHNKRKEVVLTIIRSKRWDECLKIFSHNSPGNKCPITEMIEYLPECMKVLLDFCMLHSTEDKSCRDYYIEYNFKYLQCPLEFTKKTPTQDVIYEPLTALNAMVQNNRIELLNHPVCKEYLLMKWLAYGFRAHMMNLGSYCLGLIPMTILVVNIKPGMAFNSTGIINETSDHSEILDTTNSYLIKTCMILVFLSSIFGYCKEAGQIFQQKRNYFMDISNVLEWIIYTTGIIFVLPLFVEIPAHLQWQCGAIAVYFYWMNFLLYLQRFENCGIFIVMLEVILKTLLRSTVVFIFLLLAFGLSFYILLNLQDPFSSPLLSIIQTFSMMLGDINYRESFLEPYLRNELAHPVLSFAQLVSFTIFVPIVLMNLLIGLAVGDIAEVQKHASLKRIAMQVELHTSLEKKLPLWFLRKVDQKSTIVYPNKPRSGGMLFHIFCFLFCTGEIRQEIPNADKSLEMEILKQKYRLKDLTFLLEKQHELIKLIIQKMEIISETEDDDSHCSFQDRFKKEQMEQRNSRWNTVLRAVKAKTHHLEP
T1 sequence (Q8NER1 whole entry, species assumed): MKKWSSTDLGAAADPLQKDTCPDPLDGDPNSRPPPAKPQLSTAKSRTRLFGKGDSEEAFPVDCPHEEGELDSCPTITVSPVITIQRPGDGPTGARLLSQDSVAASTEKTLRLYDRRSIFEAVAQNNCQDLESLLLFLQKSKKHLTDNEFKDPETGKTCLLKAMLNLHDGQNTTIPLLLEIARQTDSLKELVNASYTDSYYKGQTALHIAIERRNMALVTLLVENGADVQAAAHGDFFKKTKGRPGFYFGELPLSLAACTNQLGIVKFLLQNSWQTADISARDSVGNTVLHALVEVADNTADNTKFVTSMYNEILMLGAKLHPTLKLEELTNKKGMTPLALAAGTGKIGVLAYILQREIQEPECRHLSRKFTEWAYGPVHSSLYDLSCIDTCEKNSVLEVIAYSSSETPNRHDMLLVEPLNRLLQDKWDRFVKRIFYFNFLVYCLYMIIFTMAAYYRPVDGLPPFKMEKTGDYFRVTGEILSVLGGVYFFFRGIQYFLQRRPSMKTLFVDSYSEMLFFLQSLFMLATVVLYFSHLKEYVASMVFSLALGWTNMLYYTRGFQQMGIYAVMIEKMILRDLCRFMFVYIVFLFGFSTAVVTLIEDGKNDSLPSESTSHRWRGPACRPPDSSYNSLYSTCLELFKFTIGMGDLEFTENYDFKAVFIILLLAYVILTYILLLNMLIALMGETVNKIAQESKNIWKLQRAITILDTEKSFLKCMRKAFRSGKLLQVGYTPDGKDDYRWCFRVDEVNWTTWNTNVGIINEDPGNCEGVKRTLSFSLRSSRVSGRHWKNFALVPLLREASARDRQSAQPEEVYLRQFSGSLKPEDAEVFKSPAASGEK
T3 sequence (Q7Z2W7 whole entry): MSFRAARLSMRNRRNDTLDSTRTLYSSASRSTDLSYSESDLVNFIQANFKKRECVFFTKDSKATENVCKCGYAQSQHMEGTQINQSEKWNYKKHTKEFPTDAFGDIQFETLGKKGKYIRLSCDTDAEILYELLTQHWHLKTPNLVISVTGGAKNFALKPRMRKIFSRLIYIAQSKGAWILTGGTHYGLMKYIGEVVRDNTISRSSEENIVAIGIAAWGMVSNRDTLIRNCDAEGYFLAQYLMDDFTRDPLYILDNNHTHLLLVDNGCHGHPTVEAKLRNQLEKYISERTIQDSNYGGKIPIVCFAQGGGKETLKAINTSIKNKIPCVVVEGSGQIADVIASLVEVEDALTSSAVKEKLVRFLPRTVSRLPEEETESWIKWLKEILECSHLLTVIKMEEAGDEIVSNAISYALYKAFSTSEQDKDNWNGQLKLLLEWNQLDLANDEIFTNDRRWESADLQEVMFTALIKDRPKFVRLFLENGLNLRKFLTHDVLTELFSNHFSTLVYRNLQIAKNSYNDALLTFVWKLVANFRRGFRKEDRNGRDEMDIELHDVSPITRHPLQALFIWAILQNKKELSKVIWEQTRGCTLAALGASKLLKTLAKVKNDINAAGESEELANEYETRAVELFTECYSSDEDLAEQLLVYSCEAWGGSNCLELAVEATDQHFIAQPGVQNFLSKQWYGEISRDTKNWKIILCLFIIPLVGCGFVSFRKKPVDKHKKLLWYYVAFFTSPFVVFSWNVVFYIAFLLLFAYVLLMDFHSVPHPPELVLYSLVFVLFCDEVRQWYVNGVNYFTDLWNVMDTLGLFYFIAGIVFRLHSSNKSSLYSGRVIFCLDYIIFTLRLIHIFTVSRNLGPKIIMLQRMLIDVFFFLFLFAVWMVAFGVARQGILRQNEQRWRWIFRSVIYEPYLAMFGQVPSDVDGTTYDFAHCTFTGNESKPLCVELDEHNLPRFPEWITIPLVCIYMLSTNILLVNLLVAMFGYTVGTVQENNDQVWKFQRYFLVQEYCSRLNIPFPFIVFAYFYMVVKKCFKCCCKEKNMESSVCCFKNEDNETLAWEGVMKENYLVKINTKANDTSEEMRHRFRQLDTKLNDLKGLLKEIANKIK

| SMILES | body weight gain [1] | insulin sensitivity [2] | short term food intake [3] | gastric emptying [4] | EC50 [5] [µM] | activation of TRPV1 [6] | activation of TRPA1 ([7]; FIG. 7, diamonds) | efficacy of TRPA1 activation relative to cinnamaldehyde ([7]; relative to known TRPA1 agonist cinnamaldehyde) [%] | activation of TRPV1 [8] | activation of "empty" cells [9] | desensitization of TRPA1 [10] | desensitization of TRPV1 [11] | activation of hTRPM8 [12] | desensitization of TRPM8 [13] |
| --- | --- | --- | --- | --- | --- | --- | --- | --- | --- | --- | --- | --- | --- | --- |
| O=CC=Cc1ccccc1 [cinnamaldehyde] | gained less weight | improved insulin sensitivity | reduction in short term food intake | delayed gastric emptying | ~60 | not | – | – | – | – | – | – | – | – |
| CC(C)c1ccc(C=O)cc1 [cuminaldehyde] | – | – | – | – | – | – | activated TRPA1 (diamonds) in a dose-dependent fashion | 140 | no activation was observed | no activation was observed | does not desensitize | does not desensitize | no activation was observed | does not desensitize |
